Test results taken from patent publication US9445588B2, “Methods for increasing oil palm yield” (Valent BioSciences Corporation, priority 2014, dated 2016).

Key:
oil palm [1] = test: Second field study, repeat preharvest AVG sprays every 20 days, harvest 10 days after treatment (Example 2); format: in vivo, oil palm (bi-clonal DxP palms); details: AVG 500 ppm
Method: Plant material: A second field study was executed in a plantation in Malaysia to compare the effects of repeat broadcast directed bunch applications of AVG to the untreated control (UTC). For both treatments, 148 palms per block with 4 rows per block covering about 1.1 ha were used. The bi-clonal DxP palms were 3 to 4 years old. Treatment application: A motorized mist blower was used to apply AVG (500 ppm at 600 mL/plant or 300 mg/palm/application) to the lower and most mature rows of bunches of each palm plant. The time required for 360 degree spray application per palm plant was about 30 seconds. Treatments were applied every 20 days and harvests of treated palms were 10 days after treatments. Untreated bunches were harvested every 10 days. Treatments were applied from September to November 2013. Oil yield: Oil yield was determined as kg oil/bunch=oil content*bunch wt. […] Oil yield was 2.80 kg/bunch for the AVG treatment and 2.51 kg/bunch for the UTC.

oil palm [2] = test: Field study, repeat bunch-directed preharvest application of AVG every 10 days (Example 1); format: in vivo, oil palm (bi-clonal DxP palms)
Method: Plant material: A field study was executed in a plantation in Malaysia to compare the effects of repeat bunch-directed applications of AVG to the untreated control (UTC). In this study, AVG was provided in a formulation as AVG-HCl at a concentration of 20% w/wt. For both treatments, 148 palms per block with 4 rows per block covering about 1.1 hectare were used. The bi-clonal DxP palms were 3 to 4 years old.
Treatment application: A motorized mist blower was used to apply AVG (500 ppm, at 600 mL/palm or 300 mg/palm/application) to the lower and most mature rows of bunches of each palm.
The time required for 360 degree spray application around each palm was about 30 seconds. Sprays were applied every 10 days which coincided with harvest frequency in this block. Treatments were applied from September to November 2013.
Harvest: Harvest picks occurred every 10 days. Bunches were harvested at the point of initial fruit drop. At harvest, UTC bunches had lost an average of 34.8 fruit/bunch and the AVG-treated bunches had lost 33.9 fruits/bunch. Bunch weight results were recorded over six harvests picks for the 10 representative palms that were tagged for each treatment.
Oil content: At each harvest pick beginning with the fourth harvest pick interval, bunches were selected and individually bagged, tagged, and transferred to the laboratory for determination of oil content. Bunch samples from each harvest were analyzed in the laboratory for oil content using standard methods (Blaak, et al., 1963, J. West African Institute of Oil Palm Research, 4:146-155).
Oil yield: Oil yield was determined as kg oil/bunch=oil content*bunch wt. […] Oil yield was 2.85 kg/bunch for the AVG treatment and 2.56 kg/bunch for the UTC.

oil palm [3] = test: Oil quality (free fatty acid content) of oil from AVG-HCl treated oil palms; format: in vivo; details: Rath and Shashikant 2014, Valent BioSciences technical information
oil palm fruit = details: preharvest application to attached bunches of oil palm fruit; cited from earlier work

## NCCO/C=C/[C@H](N)C(=O)O (stereo in doubt) [AVG, [S]-trans-2-amino-4-(2-aminoethoxy)-3-butenoic acid]
Oil palm [1]; 600 mL/plant
  Average Bunch Weight: 9.36 kg/bunch
  Oil Yield (oil content*bunch wt): 2.80 kg oil/bunch
Oil palm [1]; 600 mL/plant (300 mg/palm/application)
  Average Oil Content: 0.299 oil wt/bunch wt
Oil palm [2]; AVG 500 ppm, 600 mL/palm (300 mg/palm/application), sprays every 10 days, bunches from fourth harvest pick on
  Average Oil Content: 0.284 oil wt/bunch wt
Oil palm [2]; AVG 500 ppm, 600 mL/palm, sprays every 10 days
  Oil Yield (oil content*bunch wt): 2.85 kg oil/bunch
Oil palm [2]; AVG 500 ppm, 600 mL/palm, sprays every 10 days, six harvest picks, 10 tagged palms
  Average Bunch Weight: 10.02 kg/bunch
Oil palm [2]; bunches harvested at the point of initial fruit drop, UTC 34.8 fruit/bunch
  Average fruit lost per bunch at harvest: 33.9 fruits/bunch

## Cl.NCCO/C=C/[C@H](N)C(=O)O [AVG-HCl]
Oil palm [3]
  Free fatty acid content of the oil: did not have increased free fatty acid content

## O=P(O)(O)CCCl [ethephon, 2-chloroethyl phosphonic acid]
Oil palm fruit
  Increase in oil content: 7%
